One test has as its target T1, κ opioid receptor (Homo sapiens, UniProt P41145).
T1 construct: expressed in transfected cells; host or cells: CHO cells (membranes)
Description: Competition binding assay on membranes of CHO cells expressing κ opioid receptor, [3H]-labeled ligand. The following applies: for Ki: read-out: κOR Ki; for inhibition at 1 µM: 0.5 h, 1 μM concentration of compounds, read-out: κOR Binding rate (%). The gist of the method: (§1)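 CHO membranes (20–30 μg protein) incubated with [3H]-labeled ligand at 1–2 nM and test compounds, 30 min at 30° C; nonspecific binding with 1 μM corresponding ligand. Filtered on GF/C, washed with 50 mM Tris-HCl pH 7.4, scintillation-counted. IC50 converted to Ki by Ki=IC50/(1+[L]/Kd).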

Another test has as its system Female mice. Put plainly: In vivo hot plate method analgesia test. The following applies: intraperitoneal; for ED50: Mus musculus, ip, Table 3-2, hot plate; for % MPE @ 10 mg/kg: Table 3-2, hot plate 55° C. The gist of the method:
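Female mice (~20 g) on a 55° C hot plate, hindpaw response latency as pain threshold (pre-screen 5–30 s, 60 s cut-off). Latencies at 15, 30, 60 and 120 min after intraperitoneal dosing. %MPE = (post−pre latency)/(60−pre)×100, ED50 derived from %MPE.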

Another test has as its target T2, μ opioid receptor (Homo sapiens, UniProt P35372).
T2 construct: expressed in transfected cells; host or cells: CHO cells (membranes)
Put plainly: Competition binding assay on membranes of CHO cells expressing μ opioid receptor, [3H]-labeled ligand. The settings on record: for Ki: read-out: μOR Ki; for inhibition at 1 µM: 1 μM concentration of compounds, read-out: μOR Binding rate (%). The gist of the method: as §1

In a further test the target is T3, δ opioid receptor (Homo sapiens, UniProt P41143).
T3 construct: expressed in transfected cells; host or cells: CHO cells (membranes)
Description: Competition binding assay on membranes of CHO cells expressing δ opioid receptor, [3H]-labeled ligand. The following applies: for inhibition at 1 µM: 0.5 h; for Ki: read-out: δOR Ki. An outline of the steps: as §1

Where [1] appears, read: Table 3-1, 1 μM concentration of compounds, read-out: δOR Binding rate (%).

This note sets out measurements from US12624004B2 (Fudan University, priority 2019, dated 2026).

Where a name gives a salt, the structure may show the parent alone. Read-outs that look alike come from different tables or passages of the source.

As for `COc1cccc(C2(O)CCN(C(=O)C3(c4ccccc4)CCCCC3)CC2CN(C)C)c1.Cl` (stereo not shown) [FWBE27, (3-((Dimethylamino)methyl)-4-hydroxy-4-(3-methoxyphenyl)piperidin-1-yl)(1-phenylcyclohexyl) methanone hydrochloride], the figures for the inhibition constant Ki on κ opioid receptor (Table 5-1) and at μ opioid receptor (Table 5-1) were 30.7 ± 0.96 nM and 51.6 ± 2.24 nM, respectively. The “Maximum percentage effective analgesia (% MPE)” value in the test with Female mice (Table 5-2, hot plate 55° C., 10 mg/kg dose) is 61.21%. Further, the inhibition at 1 µM on δ opioid receptor (Table 5-1, 1 μM concentration of compound, read-out: δOR Combination rate (%)) was found to be 93.6 ± 1.08%.

Regarding `COc1cccc(C2(O)CCN(C(=O)Nc3ccccc3)CC2CN(C)C)c1.Cl` (stereo not shown) [FWBF1, 3-((Dimethylamino)methyl)-4-hydroxy-4-(3-methoxyphenyl)-N-phenylpiperidine-1-carboxamide hydrochloride], the inhibition constant (Ki) at κ opioid receptor (Table 3-1) was 49.1 ± 6.9 nM; at μ opioid receptor (Table 3-1), 7.3 ± 0.5 nM; on δ opioid receptor (Table 3-1) it was 849 ± 96.6 nM. In the test on Female mice, this molecule yielded a 50% effective dose (ED50) of 2.75 mg/kg.

Regarding `COc1cccc(C2(O)CCN(C(=O)Nc3cccc(Cl)c3)CC2CN(C)C)c1.Cl` (stereo not shown) [FWBF2, N-(3-Chlorophenyl)-3-((dimethylamino)methyl)-4-hydroxy-4-(3-methoxyphenyl)piperidine-1-carboxamide hydrochloride], the figures for the inhibition constant (Ki) at κ opioid receptor (Table 3-1), on μ opioid receptor (Table 3-1) and at δ opioid receptor (Table 3-1) were 719 ± 197 nM, 14.1 ± 2.7 nM and 537 ± 69.3 nM, respectively. Besides, the “% MPE @ 10 mg/kg” value in the test on Female mice (10 mg/kg dose) was 21.27%.

Consider `COc1cccc(C2(O)CCN(C(=O)N(C)c3cccc(Cl)c3)CC2CN(C)C)c1.Cl` (stereo not shown) [FWBF3, N-(3-Chlorophenyl)-3-((dimethylamino)methyl)-4-hydroxy-4-(3-methoxyphenyl)-N-methylpiperidine-1-carboxamide hydrochloride], for which the results for the inhibition at 1 µM at κ opioid receptor (Table 3-1), at μ opioid receptor (Table 3-1) and at δ opioid receptor (setting [1]) were 14 ± 9.7%, 8.7 ± 3.7% and 0%, respectively. Also, in the test with Female mice (10 mg/kg dose), the “% MPE @ 10 mg/kg” value is on record as 3.36%.

Consider `COc1cccc(C2(O)CCN(C(=O)Nc3ccc(Cl)cc3)CC2CN(C)C)c1.Cl` (stereo not shown) [FWBF4, N-(4-Chlorophenyl)-3-((dimethylamino)methyl)-4-hydroxy-4-(3-methoxyphenyl)piperidine-1-carboxamide hydrochloride], for which the inhibition at 1 µM came to 22.1 ± 10.7% at κ opioid receptor (Table 3-1), 48.8 ± 3.9% at μ opioid receptor (Table 3-1) and 0% on δ opioid receptor (setting [1]). Besides, the “% MPE @ 10 mg/kg” value with Female mice (10 mg/kg dose) turned out to be 68.95%.

For the molecule `COc1cccc(C2(O)CCN(C(=O)Nc3ccc(Cl)c(Cl)c3)CC2CN(C)C)c1.Cl` (stereo not shown) [FWBF5, N-(3,4-dichlorophenyl)-3-((dimethylamino)methyl)-4-hydroxy-4-(3-methoxyphenyl)piperidine-1-carboxamide hydrochloride], the inhibition at 1 µM at κ opioid receptor (Table 3-1) is 18.2 ± 1.9%; at μ opioid receptor (Table 3-1), 46 ± 5.4%; on δ opioid receptor (setting [1]), 0%. In the test on Female mice (10 mg/kg dose), the “% MPE @ 10 mg/kg” value turned out to be 25.42%.

As for `COc1cccc(C2(O)CCN(C(=O)Nc3cc(Cl)c(Cl)c(Cl)c3)CC2CN(C)C)c1` (stereo not shown) [FWBF6, 3-((Dimethylamino)methyl)-4-hydroxy-4-(3-methoxyphenyl)-N-(3,4,5-trichlorophenyl) piperidine-1-carboxamide hydrochloride], the inhibition at 1 µM on κ opioid receptor (Table 3-1) is 0%; at μ opioid receptor (Table 3-1), 13.2 ± 8%; on δ opioid receptor (setting [1]) it was 0%. For the same molecule, the “% MPE @ 10 mg/kg” value with Female mice (10 mg/kg dose) amounted to 4.54%.

On to `COc1cccc(C2(O)CCN(C(=O)Nc3cccc(F)c3)CC2CN(C)C)c1` (stereo not shown) [FWBF7, 3-((Dimethylamino)methyl)-N-(3-fluorophenyl)-4-hydroxy-4-(3-methoxyphenyl)piperidine-1-carboxamide hydrochloride], for which the inhibition at 1 µM at κ opioid receptor (Table 3-1) came out at 0%; at μ opioid receptor (Table 3-1), 36.7 ± 7.4%; on δ opioid receptor (setting [1]) it was 9.2 ± 7.8%. This molecule registered an ED50 in the test on Female mice of 4.12 mg/kg.

`COc1cccc(C2(O)CCN(C(=O)Nc3ccc(F)c(F)c3)CC2CN(C)C)c1.Cl` (stereo not shown) [FWBF8, N-(3,4-difluorophenyl)-3-((dimethylamino)methyl)-4-hydroxy-4-(3-methoxyphenyl)piperidine-1-carboxamide hydrochloride]: the inhibition at 1 µM on κ opioid receptor (Table 3-1) worked out at 0%; at μ opioid receptor (Table 3-1), 13.6 ± 13.1%; at δ opioid receptor (setting [1]) it was 16.4 ± 10.6%. Moreover, the “% MPE @ 10 mg/kg” value in the test with Female mice (10 mg/kg dose) was determined as 21.76%.

For the molecule `COc1cccc(C2(O)CCN(C(=O)Nc3ccc(F)c(Cl)c3)CC2CN(C)C)c1` (stereo not shown) [FWBF9, N-(3-chloro-4-fluorophenyl)-3-((dimethylamino)methyl)-4-hydroxy-4-(3-methoxyphenyl) piperidine-1-carboxamide hydrochloride], the inhibition at 1 µM at κ opioid receptor (Table 3-1) turned out to be 7.1 ± 5%; on μ opioid receptor (Table 3-1), 25 ± 13.3%; on δ opioid receptor (setting [1]), 21.6 ± 13.4%. Also, the “% MPE @ 10 mg/kg” value with Female mice (10 mg/kg dose) was found to be 18.15%.

Turning to `COc1cccc(C2(O)CCN(C(=O)Nc3cc(C(F)(F)F)cc(C(F)(F)F)c3)CC2CN(C)C)c1.Cl` (stereo not shown) [FWBF10, N-(3,5-Bis(trifluoromethyl)phenyl)-3-((dimethylamino)methyl)-4-hydroxy-4-(3-methoxyphenyl) piperidine-1-carboxamide hydrochloride], the values for the inhibition at 1 µM on κ opioid receptor (Table 3-1), at μ opioid receptor (Table 3-1) and at δ opioid receptor (setting [1]) were 8.6 ± 4.8%, 0% and 0.9%, respectively. Besides, the “% MPE @ 10 mg/kg” value with Female mice (10 mg/kg dose) is 7.74%.

As for `COc1cccc(C2(O)CCN(C(=O)Nc3ccc4ccccc4c3)CC2CN(C)C)c1` (stereo not shown) [FWBF11, 3-((Dimethylamino)methyl)-4-hydroxy-4-(3-methoxyphenyl)-N-(naphthalen-2-yl)piperidine-1-carboxamide hydrochloride], the inhibition at 1 µM at κ opioid receptor (Table 3-1) amounted to 3.9%; on μ opioid receptor (Table 3-1), 0.5%; at δ opioid receptor (setting [1]) it was 0%. In addition, the “% MPE @ 10 mg/kg” value with Female mice (10 mg/kg dose) worked out at 4.41%.

As to `COc1cccc(C2(O)CCN(C(=O)NCc3ccccc3)CC2CN(C)C)c1` (stereo not shown) [FWBF12, N-Benzyl-3-((dimethylamino)methyl)-4-hydroxy-4-(3-methoxyphenyl)piperidine-1-carboxamide hydrochloride], the inhibition at 1 µM on κ opioid receptor (Table 3-1) was determined as 5.1 ± 4%; at μ opioid receptor (Table 3-1), 35.1 ± 4.4%; at δ opioid receptor (setting [1]), 2.6 ± 2.9%. Also, the “% MPE @ 10 mg/kg” value in the test on Female mice (10 mg/kg dose) worked out at 15.07%.

As to `COc1cccc(C2(O)CCN(C(=O)N[C@@H](C)c3ccccc3)CC2CN(C)C)c1` (stereo partly drawn) [FWBF13, 3-((Dimethylamino)methyl)-4-hydroxy-4-(3-methoxyphenyl)-N-((S)-1-phenylethyl)piperidine-1-carboxamide hydrochloride], the inhibition at 1 µM on κ opioid receptor (Table 3-1) stood at 4.1 ± 6.7%; at μ opioid receptor (Table 3-1), 20.5 ± 5.5%; at δ opioid receptor (setting [1]) it was 0%. Moreover, in the test on Female mice (10 mg/kg dose), the “% MPE @ 10 mg/kg” value turned out to be 5.77%.

Regarding `COc1cccc(C2(O)CCN(C(=O)NC34CC5CC(CC(C5)C3)C4)CC2CN(C)C)c1` [FWBF14, N-((3S,5S,7S)-adamantan-1-yl)-3-((dimethylamino)methyl)-4-hydroxy-4-(3-methoxyphenyl) piperidine-1-carboxamide hydrochloride], the results for the inhibition at 1 µM on κ opioid receptor (Table 3-1), on μ opioid receptor (Table 3-1) and at δ opioid receptor (setting [1]) were 17.9 ± 4.8%, 13.5 ± 4.8% and 0%, respectively. Besides, the “% MPE @ 10 mg/kg” value with Female mice (10 mg/kg dose) worked out at 24.15%.

On to `COc1cccc(C2(O)CCN(C(=O)NC(C)C34CC5CC(CC(C5)C3)C4)CC2CN(C)C)c1.Cl` [FWBF15, N-(1-((3R,5R,7R)-adamantan-1-yl)ethyl)-3-((dimethylamino)methyl)-4-hydroxy-4-(3-methoxyphenyl)piperidine-1-carboxamide hydrochloride], for which the inhibition at 1 µM was found to be 10.4 ± 10.2% at κ opioid receptor (Table 3-1), 32.8 ± 5.5% on μ opioid receptor (Table 3-1) and 0% on δ opioid receptor (setting [1]). Further, in the test with Female mice (10 mg/kg dose), the “% MPE @ 10 mg/kg” value was found to be 22.07%.
